# Counter-ions that a name gives are not always drawn.
# How the values were obtained:
# human DβH = molecular target: T1, human DβH (Homo sapiens, UniProt P09172); assay: DβH activity (β-hydroxylation of dopamine to noradrenaline) in SK-N-SH cells; format: cell-based; conditions: for remaining activity at 5 µM: SK-N-SH, 0.75 h, read-out: DβH activity in SK-N-SH cells, Mean ± SEM; for IC50 values against human DβH activity (in words): concentration-dependent decrease in β-hydroxylation of dopamine; for IC50: read-out: IC50 for inhibition of DβH in SK-N-SH cells; for inhibition of DβH activity (in words): 5 μM, as listed in Table 1
# T1 construct: SK-N-SH cells (ATCC HTB-11), a human neuroblastoma derived cell line, were used as a source of human DβH; host or cells: SK-N-SH cells
# T1 sequence (P09172 1-617): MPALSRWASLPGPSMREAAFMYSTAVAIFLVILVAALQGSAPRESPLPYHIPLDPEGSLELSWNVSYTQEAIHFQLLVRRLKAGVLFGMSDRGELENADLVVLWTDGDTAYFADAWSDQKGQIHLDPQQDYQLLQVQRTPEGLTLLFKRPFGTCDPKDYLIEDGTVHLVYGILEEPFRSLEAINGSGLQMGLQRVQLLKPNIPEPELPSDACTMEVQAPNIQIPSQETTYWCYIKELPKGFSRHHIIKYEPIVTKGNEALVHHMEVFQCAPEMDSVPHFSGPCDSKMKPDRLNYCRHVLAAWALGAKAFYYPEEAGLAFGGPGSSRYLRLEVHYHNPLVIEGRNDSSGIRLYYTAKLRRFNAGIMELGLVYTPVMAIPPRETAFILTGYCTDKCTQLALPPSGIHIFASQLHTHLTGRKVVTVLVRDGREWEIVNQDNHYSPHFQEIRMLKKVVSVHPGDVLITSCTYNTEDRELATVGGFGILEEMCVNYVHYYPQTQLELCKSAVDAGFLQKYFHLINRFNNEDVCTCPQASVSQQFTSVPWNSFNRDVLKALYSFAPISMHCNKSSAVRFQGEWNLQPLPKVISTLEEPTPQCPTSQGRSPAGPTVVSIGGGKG
# Method: SK-N-SH cells (ATCC HTB-11), a human neuroblastoma derived cell line, were used as a source of human DβH. SK-N-SH cells cultured in 24 well plates were preincubated for 20 min in a reaction medium containing 200 mM sodium acetate, 30 mM N-ethylmaleimide, 5 μM copper sulphate, 0.5 mg/ml catalase aqueous solution, 1 mM pargyline, 10 mM sodium fumarate and 20 mM ascorbic acid. […] During preincubation and incubation, the cells were continuously shaken and maintained at 37° C. The reaction was terminated by the addition of 0.2 M perchloric acid. The acidified samples were stored at 4° C. before injection into the high pressure liquid chromatograph for the assay of noradrenaline.
# [1] = tested on: noradrenaline tissue levels; assay: Noradrenaline tissue levels in heart and brain of mice after oral administration; format: in vivo, mouse; conditions: for recovery of initial noradrenaline tissue levels: mouse heart, at 24 h; for recovery of initial noradrenaline tissue levels / Time of maximum effect (Tmax) for noradrenaline tissue reduction / duration of action in the heart: 100 mg/kg oral; for Time of maximum effect (Tmax) for noradrenaline tissue reduction / dose at which the maximal inhibitory effect was attained: mouse left ventricle; for dose at which the maximal inhibitory effect was attained / noradrenaline levels in left ventricle / noradrenaline tissue levels in the brain parietal cortex: 9 h after oral administration; for duration of action in the heart / noradrenaline levels in left ventricle / noradrenaline tissue levels in the brain parietal cortex: mouse; for duration of action in the heart: time course
# Method: (§1) Male NMRI mice or Wistar rats were obtained from Harlan-lnterfauna (Spain) and were kept 10 and 5 per cage respectively, under controlled environmental conditions (12 h light/dark cycle and room temperature 22±1° C.). Food and tap water were allowed ad libitum and experimentation was performed during daylight hours.
# (§2) At time =0 h, animals were administered with either test compounds at a given dose or vehicle (water) delivered orally via gavage. At 2, 6, 9, 12, 18 and 24 h post dose, the animals were sacrificed by decapitation and heart (left atrium and left ventricle) and brain (frontal and parietal cortex) were isolated, weighed and stored in a volume of 0.2 M perchloric acid for 12 h at 4° C. in the dark. Post incubation, the resulting supernatants were collected by centrifuge filtration of incubates ([…]/10 min/˜5000 rpm, 4° C.). Supernatants were stored frozen at −80° C. until analysis. Quantification of dopamine and noradrenaline in supernatants was performed by high pressure liquid chromatography with electrochemical detection.
# [2] = tested on: noradrenaline tissue levels; assay: Noradrenaline tissue levels in heart and brain of rats after oral administration; format: in vivo; conditions: rat; for noradrenaline tissue levels in brain parietal cortex and brain frontal cortex: 9 h after oral administration; for dose dependence of effects upon noradrenaline / time of maximum effect upon noradrenaline: oral
# Method: as §1, §2
# [3] = prior art finding; cited from earlier work
smiles,measurement,setting,value
"NCc1c[nH]c(=S)n1[C@H]1CCc2c(F)cc(F)cc2C1 [Compound 1, nepicastat, reference compound]",remaining activity at 5 µM,human DβH,0%
same,IC50 values against human DβH activity (in words),human DβH,low nM range
same,IC50,human DβH,36 nM
same,recovery of initial noradrenaline tissue levels,[1],50%
same,Time of maximum effect (Tmax) for noradrenaline tissue reduction,[1],9 h
same,dose at which the maximal inhibitory effect was attained,[1],100 mg/kg
same,duration of action in the heart,[1],long acting
same,noradrenaline levels in left ventricle,[1],dose-dependent manner
same,noradrenaline tissue levels in the brain parietal cortex,[1],dose-dependent decrease
same,noradrenaline tissue levels in brain parietal cortex and brain frontal cortex,[2],marked decrease
same,dose dependence of effects upon noradrenaline,[2],dependent on the dose administered
same,time of maximum effect upon noradrenaline,[2],9 h
same,crossing of the blood brain barrier (BBB),[3],cross the blood brain barrier
"Cl.NCCc1c[nH]c(=S)n1[C@H]1COc2c(F)cc(F)cc2C1 [Compound 4, (R)-5-(2-aminoethyl)-1-(6,8-difluorochroman-3-yl)-1,3-dihydroimidazole-2-thione hydrochloride]",inhibition of DβH activity (in words),human DβH,markedly inhibit
same,remaining activity at 5 µM,human DβH,3.3 ± 0.3%
same,IC50 values against human DβH activity (in words),human DβH,low nM range
same,IC50,human DβH,105 nM
same,recovery of initial noradrenaline tissue levels,[1],50%
same,Time of maximum effect (Tmax) for noradrenaline tissue reduction,[1],9 h
same,dose at which the maximal inhibitory effect was attained,[1],100 mg/kg
same,duration of action in the heart,[1],long acting
same,noradrenaline levels in left ventricle,[1],dose-dependent manner
same,noradrenaline tissue levels in the brain parietal cortex,[1],failed to affect
same,inhibitory effects upon noradrenaline levels in left atrium and left ventricle,"[2]; 100 mg/kg oral, 9 h",more pronounced than those elicited by 1
same,noradrenaline tissue levels in brain parietal cortex and brain frontal cortex,[2],failed to affect
same,dose dependence of effects upon noradrenaline,[2],dependent on the dose administered
same,time of maximum effect upon noradrenaline,[2],9 h
"COc1cc(Cl)cc2c1OC[C@H](n1c(CCN)c[nH]c1=S)C2 [Compound 11, (R)-5-(2-aminoethyl)-1-(6-chloro-8-methoxychroman-3-yl)-1,3-dihydroimidazole-2-thione hydrochloride]",remaining activity at 5 µM,human DβH,36.7 ± 4.4%
"COc1cc(Cl)c2c(c1)C[C@@H](n1c(CCN)c[nH]c1=S)CO2 [Compound 13, (R)-5-(2-aminoethyl)-1-(6-methoxy-8-chlorochroman-3-yl)-1,3-dihydroimidazole-2-thione hydrochloride]",remaining activity at 5 µM,human DβH,94 ± 3.1%
"CNCCc1c[nH]c(=S)n1[C@H]1COc2ccccc2C1.Cl [Compound 29, (R)-1-Chroman-3-yl-5-(2-methylaminoethyl)-1,3-dihydroimidazole-2-thione hydrochloride]",inhibition of DβH activity (in words),human DβH,markedly inhibit
same,remaining activity at 5 µM,human DβH,2.2 ± 2.5%
"Cl.NCCc1c[nH]c(=S)n1[C@H]1COc2ccccc2C1 [Compound 12, (R)-5-(2-aminoethyl)-1-chroman-3-yl-1,3-dihydroimidazole-2-thione hydrochloride]",inhibition of DβH activity (in words),human DβH,markedly inhibit
same,remaining activity at 5 µM,human DβH,3 ± 0.5%
"COc1ccc2c(c1)C[C@@H](n1c(CCNCc3ccccc3)c[nH]c1=S)CO2 [Compound 25, (R)-5-(2-Benzylaminoethyl)-1-(6-methoxychroman-3-yl)-1,3-dihydroimidazole-2-thione hydrochloride]",remaining activity at 5 µM,human DβH,66 ± 4.5%
"Cl.NCCCc1c[nH]c(=S)n1[C@H]1CCc2c(F)cc(F)cc2C1 [Compound 5, (S)-5-(3-aminopropyl)-1-(5,7-difluoro-1,2,3,4-tetrahydronaphthalen-2-yl)-1,3-dihydroimidazole-2-thione hydrochloride]",inhibition of DβH activity (in words),human DβH,markedly inhibit
same,remaining activity at 5 µM,human DβH,8.1 ± 0.3%
"Cl.NCc1c[nH]c(=S)n1[C@H]1COc2c(F)cc(F)cc2C1 [Compound 3, (R)-5-aminomethyl-1-(6,8-difluorochroman-3-yl)-1,3-dihydroimidazole-2-thione hydrochloride]",inhibition of DβH activity (in words),human DβH,markedly inhibit
same,remaining activity at 5 µM,human DβH,4.1 ± 0.6%
same,IC50 values against human DβH activity (in words),human DβH,low nM range
same,IC50,human DβH,91 nM
"NCc1c[nH]c(=S)n1[C@H]1COc2ccc(O)cc2C1 [Compound 22, (R)-5-aminomethyl-1-(6-hydroxychroman-3-yl)-1,3-dihydroimidazole-2-thione hydrochloride]",remaining activity at 5 µM,human DβH,17.8 ± 2.1%
"Cl.NCCc1c[nH]c(=S)n1[C@H]1COc2ccc(O)cc2C1 [Compound 16, (R)-5-(2-aminoethyl)-1-(6-hydroxychroman-3-yl)-1,3-dihydroimidazole-2-thione hydrochloride]",inhibition of DβH activity (in words),human DβH,markedly inhibit
same,remaining activity at 5 µM,human DβH,0%
"COc1ccc2c(c1)C[C@@H](n1c(CCN)c[nH]c1=S)CO2 [Compound 23, (R)-5-(2-aminoethyl)-1-(6-methoxychroman-3-yl)-1,3-dihydroimidazole-2-thione hydrochloride]",remaining activity at 5 µM,human DβH,54.5 ± 9.9%
"NCCc1c[nH]c(=S)n1[C@H]1COc2c(cccc2[N+](=O)[O-])C1 [Compound 17, (R)-5-(2-aminoethyl)-1-(8-nitrochroman-3-yl)-1,3-dihydroimidazole-2-thione hydrochloride]",remaining activity at 5 µM,human DβH,53.2 ± 3.9%
"Cl.NCCc1c[nH]c(=S)n1[C@H]1COc2ccc(F)cc2C1 [Compound 7, (R)-5-(2-aminoethyl)-1-(6-fluorochroman-3-yl)-1,3-dihydroimidazole-2-thione hydrochloride]",inhibition of DβH activity (in words),human DβH,markedly inhibit
same,remaining activity at 5 µM,human DβH,8 ± 0.1%
"CNCCc1c[nH]c(=S)n1[C@H]1COc2ccc(O)cc2C1 [Compound 27, (R)-1-(6-Hydroxychroman-3-yl)-5-(2-methylaminoethyl)-1,3-dihydroimidazole-2-thione hydrochloride]",remaining activity at 5 µM,human DβH,15.5 ± 5.8%
"COc1cccc2c1OC[C@H](n1c(CCN)c[nH]c1=S)C2.Cl [Compound 19, (R)-5-(2-aminoethyl)-1-(8-methoxychroman-3-yl)-1,3-dihydroimidazole-2-thione hydrochloride]",inhibition of DβH activity (in words),human DβH,markedly inhibit
same,remaining activity at 5 µM,human DβH,6.9 ± 0.5%
"Cl.NCCc1c[nH]c(=S)n1[C@H]1CCc2c(F)cc(F)cc2C1 [Compound 2, (S)-5-(2-aminoethyl)-1-(5,7-difluoro-1,2,3,4-tetrahydronaphthalen-2-yl)-1,3-dihydroimidazole-2-thione hydrochloride]",inhibition of DβH activity (in words),human DβH,markedly inhibit
same,remaining activity at 5 µM,human DβH,1.6 ± 0.3%
same,IC50 values against human DβH activity (in words),human DβH,low nM range
same,IC50,human DβH,60 nM
